Data as given in patent US12528784B2, “Alkynyl-(heteroaryl)-carboxamide HCN1 inhibitors” (Hoffmann-La Roche Inc., priority 2019, dated 2026).

Key:
Type in all cases: cell-based
HCN3 = target: T1, HCN3 (Homo sapiens, UniProt Q9P1Z3); assay: HCN3 automated patch clamp current inhibition assay (Ionworks Barracuda); settings: HEK-293 cells stably expressing HCN3; current inhibition during a hyperpolarizing pulse of -100 mV
T1 construct: expressed in transfected cells
T1 sequence (Q9P1Z3 1-774): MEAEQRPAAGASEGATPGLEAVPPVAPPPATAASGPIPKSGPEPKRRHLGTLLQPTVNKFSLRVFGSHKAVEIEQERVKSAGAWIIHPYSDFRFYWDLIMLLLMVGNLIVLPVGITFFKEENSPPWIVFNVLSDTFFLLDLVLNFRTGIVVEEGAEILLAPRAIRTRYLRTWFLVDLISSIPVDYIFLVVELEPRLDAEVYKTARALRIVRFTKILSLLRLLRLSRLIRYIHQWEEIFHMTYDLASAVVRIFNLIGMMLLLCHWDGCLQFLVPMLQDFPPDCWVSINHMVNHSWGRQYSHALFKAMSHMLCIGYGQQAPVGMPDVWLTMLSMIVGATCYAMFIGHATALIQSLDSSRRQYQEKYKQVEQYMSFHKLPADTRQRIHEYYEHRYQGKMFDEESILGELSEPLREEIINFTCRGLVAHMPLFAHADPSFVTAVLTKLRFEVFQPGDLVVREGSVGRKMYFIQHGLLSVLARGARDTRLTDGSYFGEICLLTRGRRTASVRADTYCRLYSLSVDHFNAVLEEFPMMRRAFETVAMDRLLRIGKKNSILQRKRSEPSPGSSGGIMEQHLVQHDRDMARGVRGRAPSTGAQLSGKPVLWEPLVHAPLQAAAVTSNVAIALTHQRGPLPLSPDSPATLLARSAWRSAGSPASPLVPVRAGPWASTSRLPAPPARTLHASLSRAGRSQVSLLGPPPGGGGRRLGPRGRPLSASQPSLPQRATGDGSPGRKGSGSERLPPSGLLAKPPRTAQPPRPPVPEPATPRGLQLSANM
Description: (§1) In vitro, high-throughput cellular electrophysiology was employed to detect voltage- and use-dependence of compounds in single concentration screening and IC50 determination for library and medicinal chemistry profiling compounds in 384 well plates.
(§2) Cell cultures were maintained in DMEM/F12 cell growth media containing FBS and appropriate antibiotics at 37° C., 5% CO2 for a maximum of 20 passages. At a time point of 40-72 hours prior to assay, the expression of HCN protein in the cells is induced by addition of tetracyclin. Cells may be incubated at 27° C. for 2-24 hours of induction. […] Cells were harvested at 80% confluency and resuspended in extracellular buffer and added to wells. A freshly prepared Escin solution was added to intracellular buffer and applied to establish whole cell recording via perforated patch clampling by APC.
(§3) Currents through activated channels were measured directly by APC by employing hyperpolarizing voltage steps. The activation window was increased and stabilized by the addition of cell permeable Br-cAMP. Baselines were established for both use- and voltage-dependence protocols using a −30 mV holding potential and multiple test pulses at −100 mV or by 20 mV steps from −120 to 0 mV, respectively. Test compounds were added after baseline recordings followed by a 10 min incubation, voltage-dependency protocol recording, and use-dependency recording. Data was corrected for baseline and rundown (well based) and normalized for % inhibition (plate based). Five previously reported HCN inhibitors of varying potencies and selectivities and zatebradine were used for run to run and plate to plate quality controls. […] Percent inhibition was analysed at −80, −100, −120 mV of the voltage-dependency protocol and at pulse 0 and 50 of the use-dependency protocols. Selectivity was assessed against HCN2, HCN3, and HCN4 overexpressing cell lines using similar methods. As HCN4 has a slower activation than the other HCN channels, activation was extended to achieve steady state activation.

HCN1 = target: T2, HCN1 (Homo sapiens, UniProt O60741); assay: HCN1 automated patch clamp current inhibition assay (Ionworks Barracuda); settings: HEK-293 cells stably expressing HCN1; current inhibition during a hyperpolarizing pulse of -100 mV
T2 construct: expressed in transfected cells
T2 sequence (O60741 1-890): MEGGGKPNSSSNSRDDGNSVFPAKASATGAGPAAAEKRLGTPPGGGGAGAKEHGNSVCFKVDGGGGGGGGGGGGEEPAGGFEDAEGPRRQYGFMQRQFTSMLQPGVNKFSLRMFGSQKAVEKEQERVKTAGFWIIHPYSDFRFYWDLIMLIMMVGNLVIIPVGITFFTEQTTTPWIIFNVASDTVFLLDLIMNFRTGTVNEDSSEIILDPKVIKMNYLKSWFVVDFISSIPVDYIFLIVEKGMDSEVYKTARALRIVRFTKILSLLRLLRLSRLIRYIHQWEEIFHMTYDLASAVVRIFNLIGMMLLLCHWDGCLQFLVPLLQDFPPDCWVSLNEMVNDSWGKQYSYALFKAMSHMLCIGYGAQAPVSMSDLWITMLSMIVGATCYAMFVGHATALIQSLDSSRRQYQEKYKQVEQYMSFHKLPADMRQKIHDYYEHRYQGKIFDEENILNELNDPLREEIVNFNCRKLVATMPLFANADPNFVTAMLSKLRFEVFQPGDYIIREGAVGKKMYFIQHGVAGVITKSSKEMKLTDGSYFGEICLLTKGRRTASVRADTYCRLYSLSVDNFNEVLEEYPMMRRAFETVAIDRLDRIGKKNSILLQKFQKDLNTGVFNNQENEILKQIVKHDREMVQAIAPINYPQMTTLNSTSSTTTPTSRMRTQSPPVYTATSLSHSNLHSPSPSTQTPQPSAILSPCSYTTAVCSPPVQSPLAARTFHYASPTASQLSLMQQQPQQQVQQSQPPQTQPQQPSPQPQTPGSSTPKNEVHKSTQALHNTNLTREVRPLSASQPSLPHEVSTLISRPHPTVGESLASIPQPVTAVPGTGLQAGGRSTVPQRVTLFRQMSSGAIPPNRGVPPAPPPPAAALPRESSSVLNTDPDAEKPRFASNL
Description: as §1, §2, §3

HCN4 = target: T3, HCN4 (Homo sapiens, UniProt Q9Y3Q4); assay: HCN4 automated patch clamp current inhibition assay (Ionworks Barracuda); settings: HEK-293 cells stably expressing HCN4; current inhibition during a hyperpolarizing pulse of -100 mV
T3 construct: expressed in transfected cells
T3 sequence (Q9Y3Q4 1-1203): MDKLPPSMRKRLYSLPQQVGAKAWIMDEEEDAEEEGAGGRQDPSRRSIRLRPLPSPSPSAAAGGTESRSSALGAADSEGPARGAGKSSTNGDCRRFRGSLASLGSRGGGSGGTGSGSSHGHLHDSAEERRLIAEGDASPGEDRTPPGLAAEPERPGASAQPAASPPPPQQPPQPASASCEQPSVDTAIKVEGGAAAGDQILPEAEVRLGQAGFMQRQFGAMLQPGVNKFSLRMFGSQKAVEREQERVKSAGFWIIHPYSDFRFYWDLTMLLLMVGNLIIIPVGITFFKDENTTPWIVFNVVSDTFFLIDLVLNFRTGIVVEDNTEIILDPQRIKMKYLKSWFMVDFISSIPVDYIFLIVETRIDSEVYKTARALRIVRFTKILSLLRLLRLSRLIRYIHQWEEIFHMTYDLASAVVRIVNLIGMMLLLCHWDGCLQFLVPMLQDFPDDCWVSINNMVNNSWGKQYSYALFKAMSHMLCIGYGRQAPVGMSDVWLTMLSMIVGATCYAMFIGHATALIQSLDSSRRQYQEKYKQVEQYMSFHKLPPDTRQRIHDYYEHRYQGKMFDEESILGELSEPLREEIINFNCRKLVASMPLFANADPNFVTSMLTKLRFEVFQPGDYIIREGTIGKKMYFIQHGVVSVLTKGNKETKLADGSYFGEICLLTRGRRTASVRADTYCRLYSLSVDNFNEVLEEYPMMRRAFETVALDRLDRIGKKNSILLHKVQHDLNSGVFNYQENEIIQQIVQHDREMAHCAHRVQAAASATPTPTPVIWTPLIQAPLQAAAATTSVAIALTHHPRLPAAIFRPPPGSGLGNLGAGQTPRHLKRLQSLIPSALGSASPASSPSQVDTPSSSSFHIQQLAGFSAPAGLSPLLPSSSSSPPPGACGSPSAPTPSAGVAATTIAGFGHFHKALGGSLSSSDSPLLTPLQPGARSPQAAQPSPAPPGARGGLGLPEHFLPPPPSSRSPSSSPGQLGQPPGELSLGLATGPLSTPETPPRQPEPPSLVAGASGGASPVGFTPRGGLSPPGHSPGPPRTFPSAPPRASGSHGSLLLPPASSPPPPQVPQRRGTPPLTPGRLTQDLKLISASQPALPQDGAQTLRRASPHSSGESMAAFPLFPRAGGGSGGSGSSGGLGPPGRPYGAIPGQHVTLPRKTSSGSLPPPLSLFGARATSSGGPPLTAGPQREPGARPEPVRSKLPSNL
Description: as §1, §2, §3

Row | Structure (SMILES) | IC50 (HCN3) [µM] | IC50 (HCN1) [µM] | IC50 (HCN4) [µM]
1 | Cc1ccc(-n2c(C(N)=O)nc(C#Cc3cccc4c3OCO4)c2C)cn1 [Example 13, 4-(Benzo[d][1,3]dioxol-4-ylethynyl)-5-methyl-1-(6-methylpyridin-3-yl)-1H-imidazole-2-carboxamide] | > 40 | 0.903 | –
2 | Cc1ccc(-n2c(C(N)=O)nc(C#Cc3cccc(Cl)n3)c2C)cn1 [Example 14, 4-((6-Chloropyridin-2-yl)ethynyl)-5-methyl-1-(6-methylpyridin-3-yl)-1H-imidazole-2-carboxamide] | > 40 | 1.94 | –
3 | Cc1ccc(-n2c(C(N)=O)nc(C#Cc3cc(Cl)ccn3)c2C)cn1 [Example 18, 4-((4-Chloropyridin-2-yl)ethynyl)-5-methyl-1-(6-methylpyridin-3-yl)-1H-imidazole-2-carboxamide] | > 40 | 4.1 | –
4 | Cc1ccc(-n2c(C(N)=O)nc(C#Cc3ccncc3)c2C)cn1 [Example 21, 5-Methyl-1-(6-methyl-3-pyridyl)-4-[2-(4-pyridyl)ethynyl]imidazole-2-carboxamide] | > 40 | 11.2 | –
5 | Cc1cncc(-n2c(C(N)=O)nc(C#Cc3ccnc(Cl)c3C)c2C)c1 [Example 25, 4-[2-(2-Chloro-3-methyl-4-pyridyl)ethynyl]-5-methyl-1-(5-methyl-3-pyridyl)imidazole-2-carboxamide] | 20.5 | 0.125 | > 40
6 | Cc1ccc(-c2c(C(N)=O)nc(C#Cc3ccnc(Cl)c3C)n2C)cn1 [Example 33] | > 40 | 0.947 | > 40
7 | Cc1ccc(-c2c(C(N)=O)nc(C#Cc3cccc(Cl)c3)n2C)cn1 [Example 34, 2-[2-(3-Chlorophenyl)ethynyl]-1-methyl-5-(6-methyl-3-pyridyl)imidazole-4-carboxamide] | 4.9 | 0.099 | > 40
8 | Cc1ccc(-n2c(C(N)=O)nc(C#Cc3ccccc3)c2C)cc1 [Example 37, 5-Methyl-4-(phenylethynyl)-1-(p-tolyl)-1H-imidazole-2-carboxamide] | > 40 | 3.12 | –
9 | Cc1c(C#Cc2ccnc(Cl)c2)nc(C(N)=O)n1-c1ccc(F)cc1F [Example 41, 4-(2-Chloro-pyridin-4-ylethynyl)-1-(2,4-difluoro-phenyl)-5-methyl-1H-imidazole-2-carboxylic Acid Amide] | > 40 | 17.4 | –
10 | Cc1ccc(-n2cc(C#Cc3ccnc(Cl)c3)nc2C(N)=O)cn1 [Example 43, 4-((2-Chloropyridin-4-yl)ethynyl)-1-(6-methylpyridin-3-yl)-1H-imidazole-2-carboxamide] | > 40 | 2.52 | –
11 | Cc1ccc(-c2c(C(N)=O)nc(C#Cc3cccc(Cl)c3C)n2C)cn1 [Example 44, 2-[2-(3-Chloro-2-methyl-phenyl)ethynyl]-1-methyl-5-(6-methyl-3-pyridyl)imidazole-4-carboxamide] | > 40 | 0.229 | > 40
